Source: US9643957B2, “Heterocyclic compounds having cholesterol 24-hydroxylase activity” (TAKEDA PHARMACEUTICAL COMPANY LIMITED, priority 2012, dated 2017)

What follows are compounds tested against T1, human CH24H (Homo sapiens, UniProt Q9Y6A2) (assay: Measurement of CH24H inhibitory activity (24-HC produced from [14C] cholesterol by human CH24H lysate)). Settings: 1 μM test compound, [14C] cholesterol 15 μM, 37° C. for 5 hr, read-out: Inhibitory Rate in 1 μM (%).
T1 construct: Using Full-Length Mammalian Gene Collection No. 4819975 (Invitrogen) as a template; made in house; host or cells: FreeStyle 293-F cells, transient transfection with pcDNA3.1(+)/hCH24H; lysate supernatant, not purified
Assay type: biochemical
Protocol: The expression of human CH24H was performed using FreeStyle 293 Expression System (Invitrogen). […] After transfection, the cells were cultured at 37° C., 8% CO2 with shaking at 125 rpm for 2 days. The cells were collected by centrifugation, and suspended in a suspension buffer (100 mM potassium phosphate (pH 7.4), 0.1 mM EDTA, 1 mM DTT, 20% Glycerol). The suspended product was disrupted by a polytron homogenizer (manufactured by Kinematica), and centrifuged at 9000×g for 10 min, and the supernatant was collected. The collected supernatant was cryopreserved (−80° C.) as a human CH24H lysate standard product.
For the measurement of CH24H inhibitory activity, using the human CH24H lysate prepared in Experimental Example 2, the amount of 24-HC produced from cholesterol by catalytic activity of CH24H was measured in the presence of a test compound, and compared with that measured in the absence of the test compound. That is, a test compound solution at various concentrations was mixed with a reaction buffer (50 mM potassium phosphate containing 0.1% BSA and Complete, EDTA-free, pH 7.4) and human CH24H lysate. Then, [^14C] cholesterol (53 mCi/mmol specific activity, 15 μM) was added, and CH24H reaction was performed at 37° C. for 5 hr. After completion of the reaction, a quenching solution consisting of chloroform/methanol/distilled water (2:2:1 v/v) was added, and the resulting 24-HC was extracted by shaking. The extract was applied to silica gel thin layer chromatography (ethyl acetate:toluene=4:6), and the obtained ^14C-24HC fraction was measured with BAS2500 (Fujifilm Corporation).
The inhibitory rate (%) was calculated from the ratio of radioactivity in the presence of a test compound relative to the radioactivity in the absence of the test compound.

T1 sequence (Q9Y6A2 whole entry): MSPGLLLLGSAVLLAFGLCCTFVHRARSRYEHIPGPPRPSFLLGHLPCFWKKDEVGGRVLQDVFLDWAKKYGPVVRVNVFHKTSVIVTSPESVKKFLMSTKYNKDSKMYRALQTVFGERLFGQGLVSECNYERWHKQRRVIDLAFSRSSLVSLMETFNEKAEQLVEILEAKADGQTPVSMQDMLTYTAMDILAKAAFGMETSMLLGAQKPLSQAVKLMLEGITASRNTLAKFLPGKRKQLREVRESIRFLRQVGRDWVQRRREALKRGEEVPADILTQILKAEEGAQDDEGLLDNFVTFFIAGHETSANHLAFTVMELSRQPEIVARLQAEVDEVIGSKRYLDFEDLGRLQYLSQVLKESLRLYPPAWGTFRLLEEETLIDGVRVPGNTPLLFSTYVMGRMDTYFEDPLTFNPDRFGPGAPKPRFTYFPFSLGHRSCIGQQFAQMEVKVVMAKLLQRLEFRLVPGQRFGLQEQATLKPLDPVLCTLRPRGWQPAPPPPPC

Going from `Cc1cnn(-c2ccncc2N2CCC(C(=O)N(C)C3CC3)CC2)c1` [Example 86, N-cyclopropyl-N-methyl-1-(4-(4-methyl-1H-pyrazol-1-yl)pyridin-3-yl)piperidine-4-carboxamide] to `Cc1cnn(-c2ccncc2N2CCC(C(=O)N(C)C3CCOCC3)CC2)c1` [Example 296, N-methyl-1-(4-(4-methyl-1H-pyrazol-1-yl)pyridin-3-yl)-N-(tetrahydro-2H-pyran-4-yl)piperidine-4-carboxamide], the inhibition at 1 µM falls from 98% to 86%.

Compared with `O=C(C1CCN(c2cnccc2-n2cc(C3CC3)cn2)CC1)N1CC(F)C1` [Example 323, (1-(4-(4-cyclopropyl-1H-pyrazol-1-yl)pyridin-3-yl)piperidin-4-yl)(3-fluoroazetidin-1-yl)methanone], `O=C(C1CCN(c2cnccc2-n2cc(Cl)cn2)CC1)N1CC(F)C1` [Example 281, (1-(4-(4-chloro-1H-pyrazol-1-yl)pyridin-3-yl)piperidin-4-yl) (3-fluoroazetidin-1-yl)methanone] is lower in inhibition at 1 µM: 93% for the first, 84% for the second.

First: O=C(NCc1ccccn1)N1CCN(c2cncnc2-c2ccccc2)CC1 [Example 188, 4-(4-phenylpyrimidin-5-yl)-N-(pyridin-2-ylmethyl)piperazine-1-carboxamide]
Second: CCNC(=O)N1CCN(c2cncnc2-c2ccccc2)CC1 [Example 176, N-ethyl-4-(4-phenylpyrimidin-5-yl)piperazine-1-carboxamide]
The inhibition at 1 µM of the first is lower: 81% for the first, 82% for the second.

First: Cc1cnn(-c2ccncc2N2CCC(C(=O)N3CC(F)(F)C[C@H]3C#N)CC2)c1 [Example 121, (2S)-4,4-difluoro-1-((1-(4-(4-methyl-1H-pyrazol-1-yl)pyridin-3-yl)piperidin-4-yl)carbonyl)pyrrolidine-2-carbonitrile]
Second: CO[C@H]1C[C@H](C#N)N(C(=O)C2CCN(c3cnccc3-n3cc(C)cn3)CC2)C1 [Example 144, (2R,4S)-4-methoxy-1-((1-(4-(4-methyl-1H-pyrazol-1-yl)pyridin-3-yl)piperidin-4-yl)carbonyl)pyrrolidine-2-carbonitrile]
The inhibition at 1 µM of the first is lower: 80% for the first, 98% for the second.

Going from `O=C(C1CCN(c2cnccc2-n2cc(Br)cn2)CC1)N1CC[C@H](F)C1` [Example 318, (1-(4-(4-bromo-1H-pyrazol-1-yl)pyridin-3-yl)piperidin-4-yl)((3S)-3-fluoropyrrolidin-1-yl)methanone] to `O=C(C1CCN(c2cnccc2-n2cc(Cl)cn2)CC1)N1CC[C@@H](F)C1` [Example 285, (1-(4-(4-chloro-1H-pyrazol-1-yl)pyridin-3-yl)piperidin-4-yl)((3R)-3-fluoropyrrolidin-1-yl)methanone], the inhibition at 1 µM falls from 94% to 82%.

First: CN(C(=O)C1CCN(c2cncnc2-c2ccc(F)cc2)CC1)[C@@H]1CCOC1 [Example 310, 1-(4-(4-fluorophenyl)pyrimidin-5-yl)-N-methyl-N-((3R)-tetrahydrofuran-3-yl)piperidine-4-carboxamide]
Second: O=C(C1CCN(c2cncnc2-c2ccc(F)cc2)CC1)N1CC[C@H](F)C1 [Example 286, (1-(4-(4-fluorophenyl)pyrimidin-5-yl)piperidin-4-yl) ((3S)-3-fluoropyrrolidin-1-yl)methanone]
The inhibition at 1 µM of the first is lower: 82% for the first, 83% for the second.

Compared with `CC(C)C1CCCN1C(=O)C1CCN(c2cnccc2-n2cc(Cl)cn2)CC1` (stereo not shown) [Example 29, (1-(4-(4-chloro-1H-pyrazol-1-yl)pyridin-3-yl)piperidin-4-yl)(2-isopropylpyrrolidin-1-yl)methanone], `NC(=O)[C@@H]1CC(F)(F)CN1C(=O)C1CCN(c2cnccc2-n2cc(Cl)cn2)CC1` [Example 117, 1-((1-(4-(4-chloro-1H-pyrazol-1-yl)pyridin-3-yl)piperidin-4-yl)carbonyl)-4,4-difluoro-L-prolinamide] is lower in inhibition at 1 µM: 97% for the first, 85% for the second.

Compared with `O=C(NC1CCOCC1)C1CCN(c2cnccc2-n2cc(Cl)cn2)CC1(F)F` (stereo not shown) [Example 79, 1-(4-(4-chloro-1H-pyrazol-1-yl)pyridin-3-yl)-3,3-difluoro-N-(tetrahydro-2H-pyran-4-yl)piperidine-4-carboxamide], `O=C(NC1CCCC1)C1CCN(c2cnccc2-n2cc(Cl)cn2)CC1(F)F` (stereo not shown) [Example 38, 1-(4-(4-chloro-1H-pyrazol-1-yl)pyridin-3-yl)-N-cyclopentyl-3,3-difluoropiperidine-4-carboxamide] is higher in inhibition at 1 µM: 93% for the first, 98% for the second.

Compared with `CO[C@H]1CCN(C(=O)C2CCN(c3cncnc3-c3ccc(F)cc3)CC2)C1` [Example 303, (1-(4-(4-fluorophenyl)pyrimidin-5-yl)piperidin-4-yl)((3S)-3-methoxypyrrolidin-1-yl)methanone], `CO[C@H]1CCN(C(=O)C2CCN(c3cnccc3-n3cc(C)cn3)CC2)C1` [Example 301, ((3S)-3-methoxypyrrolidin-1-yl)(1-(4-(4-methyl-1H-pyrazol-1-yl)pyridin-3-yl)piperidin-4-yl)methanone] is higher in inhibition at 1 µM: 85% for the first, 86% for the second.

First: CN(Cc1ccccc1)C(=O)N1CCN(c2cncnc2-c2ccccc2)CC1 [Example 298, N-benzyl-N-methyl-4-(4-phenylpyrimidin-5-yl)piperazine-1-carboxamide]
Second: O=C(N1CCN(c2cncnc2-c2ccccc2)CC1)N(CCF)Cc1ccccc1 [Example 314, N-benzyl-N-(2-fluoroethyl)-4-(4-phenylpyrimidin-5-yl)piperazine-1-carboxamide]
The inhibition at 1 µM of the first is lower: 79% for the first, 91% for the second.

First: CNC(=O)N1CCN(c2cncnc2-c2ccccc2)CC1 [Example 177, N-methyl-4-(4-phenylpyrimidin-5-yl)piperazine-1-carboxamide]
Second: O=C(N1CCN(c2cnccc2-c2ccccc2)CC1)N1CCC1c1ccc(F)cc1 (stereo not shown) [Example 190, (2-(4-fluorophenyl)azetidin-1-yl) (4-(4-phenylpyridin-3-yl)piperazin-1-yl)methanone]
The inhibition at 1 µM of the first is higher: 92% for the first, 87% for the second.

First: Cc1ccc(-c2ccncc2N2CCN(C(=O)CC3CC3)CC2)cc1 [Example 148, 2-cyclopropyl-1-(4-(4-(4-methylphenyl)pyridin-3-yl)piperazin-1-yl)ethanone]
Second: O=C(C1CCN(c2cnccc2-c2ccccn2)CC1)N1CCC(F)(F)C1 [Example 214, (1-(2,4′-bipyridin-3′-yl)piperidin-4-yl) (3,3-difluoropyrrolidin-1-yl)methanone]
The inhibition at 1 µM of the first is higher: 92% for the first, 89% for the second.

First: CNC(=O)C1CCN(c2cnccc2-n2cc(C(F)(F)F)cn2)CC1 [Example 12, N-methyl-1-(4-(4-(trifluoromethyl)-1H-pyrazol-1-yl)pyridin-3-yl)piperidine-4-carboxamide]
Second: CC1(CNC(=O)C2CCN(c3cnccc3-n3cc(Cl)cn3)CC2)COC1 [Example 31, 1-(4-(4-chloro-1H-pyrazol-1-yl)pyridin-3-yl)-N-((3-methyloxetan-3-yl)methyl)piperidine-4-carboxamide]
The inhibition at 1 µM of the first is lower: 90% for the first, 97% for the second.

Going from `Cc1cnn(-c2ccncc2N2CCC3(CCN(C)C3=O)CC2)c1` [Example 82, 2-methyl-8-(4-(4-methyl-1H-pyrazol-1-yl)pyridin-3-yl)-2,8-diazaspiro[4.5]decan-1-one] to `CN(C(=O)C1CCN(c2cnccc2-n2cc(Cl)cn2)CC1)C1CCOCC1` [Example 54, 1-(4-(4-chloro-1H-pyrazol-1-yl)pyridin-3-yl)-N-methyl-N-(tetrahydro-2H-pyran-4-yl)piperidine-4-carboxamide], the inhibition at 1 µM rises from 97% to 99%.
